The values below come from patent US20220162561A1, “COMPOSITION FOR PROMOTING SECRETION OF EXTRACELLULAR VESICLES” (priority 2019, published 2022).

Molecules are shown by their SMILES.

Holding throughout (assay type): cell-based
The subject of data set [1] is mesenchymal stem cells derived from human adipose tissue. The data set can be described thus: Test Example 4: cytotoxicity, LDH activity in culture solution. Here is the method: Mesenchymal stem cells derived from the human adipose tissue (#C-12977 manufactured by Takara Bio Inc.) were suspended in mesenchymal stem cell growth medium 2 (C-28009 manufactured by Takara Bio Inc.) so as to be 8×10^4 cells/1.8 mL, and seeded on a 6-well cell culture treatment plate (3516 manufactured by Corning Inc.). To the seeded mesenchymal stem cells derived from human adipose tissue was added 200 μL of the compound solution of each of Examples 1 to 8 diluted to 10-fold concentration with the mesenchymal stem cell growth medium 2, or mesenchymal stem cell growth medium alone (control), and after culturing for 24 hours, the culture solution was recovered. The activity of lactate dehydrogenase (LDH) contained in the recovered culture solution was measured by using LDH Cytotoxicity Detection Kit (MK401 manufactured by Takara Bio Inc.) as follows. To a freeze-dried product of Solution A was added 1 mL of purified water to completely dissolve therein, then, 250 μL of Solution A and 11.25 mL of Solution B were mixed to prepare Solution C. To 100 μL of the recovered culture solution was added 100 μL of Solution C, and the mixture was reacted at room temperature for 30 minutes. Absorbance at 490 nm was measured using Enspire (manufactured by PerkinElmer).

The test system is the same in data set [2]. The data set can be described thus: Test Example 5: cell proliferation activity (cell viability), CellTiter-Glo. Also on record: scale not given here. As to the method: Mesenchymal stem cells derived from the human adipose tissue (#C-12977 manufactured by Takara Bio Inc.) were suspended in mesenchymal stem cell growth medium 2 (C-28009 manufactured by Takara Bio Inc.) so as to be 2×10^3 cells/90 μL, and seeded on a 96-well cell culture treatment plate (3585 manufactured by Corning Inc.). To the seeded mesenchymal stem cells derived from human adipose tissue was added 10 μL of the compound solution of each of Examples 1 to 8 diluted to 10-fold concentration with the mesenchymal stem cell growth medium 2, or mesenchymal stem cell growth medium alone (control), and the cells were cultured for 24 hours. Subsequently, the number of living cells was measured as follows using CellTiter-Glo (Registered Trademark) Luminescent Cell Viability Assay (G7570 manufactured by Promega). 100 μL well of a solution in which CellTiter-Glo (trademark) Substrate was dissolved in CellTiter-Glo (trademark) Buffer was added to each well of the above-mentioned 96-well cell culture treatment plate, and then, 100 μL thereof was transferred to 96-well cell culture treatment white plate (356701 manufactured by Corning Inc.), and the luminescence was measured with Enspire (manufactured by PerkinElmer).

Data set [3] deals with human bone marrow-derived mesenchymal stem cells. As to the kind of experiment: Test Example 7: promotion of secretion of extracellular vesicles, PS Capture exosome ELISA (anti-CD63). The settings on record: 24 hours, compound untreated group (control) set to 1. Here is the method:
(§1) Human bone marrow-derived mesenchymal stem cells or human umbilical cord matrix-derived mesenchymal stem cells (#C-12974, #C-12971 manufactured by Takara Bio Inc.) were suspended in mesenchymal stem cell growth medium 2 (C-28009 manufactured by Takara Bio Inc.) so as to be 8×10^4 cells/1.8 mL, and seeded on a 6-well cell culture treatment plate (3516 manufactured by Corning Inc.). To the seeded mesenchymal stem cells was added each 200 μL of the compounds of Examples 1 to 8 diluted to 10-fold concentration with the mesenchymal stem cell growth medium 2, and after culturing for 24 hours, the culture solution was recovered. Subsequently, the recovered culture solution was centrifuged under 20,000×g at 4° C. for 60 minutes to prepare a culture solution from which cell fragments and Large Extracellular Vesicles were removed. For the detection of extracellular vesicles, PS Capture (trademark) exosome ELISA kit (anti-mouse IgG POD) (#297-79201 manufactured by FUJIFILM Wako Pure Chemical Corporation) was used.
(§2) To Reaction/Washing Buffer (1×) prepared by diluting Reaction/Washing Buffer (10×) 10-fold with purified water was added 1/100 amount of Exosome Binding Enhancer (100×) to prepare a Reaction/Washing Buffer (1×). Each culture solution was diluted 5-fold with the Reaction/Washing Buffer (1×). After washing Exosome Capture 96-well plate with 300 μL of the Reaction/Washing Buffer (1×) three times, 5-fold-diluted each extracellular vesicle solution, or the mesenchymal stem cell growth medium 2 in which no cell was cultured (negative control) was added to each well, and the mixture was reacted at room temperature for 2 hours while shaking with a microplate shaker. After completion of the reaction, the reaction mixture was discarded, and after washing each well with 300 μL of the Reaction/Washing Buffer (1×) three times, 100 μL of Primary Antibody Anti-CD63 (×100) diluted to 1,000-fold with the Reaction/Washing Buffer (1×) was added thereto, and the mixture were reacted at room temperature for 1 hour while shaking with a microplate shaker. After completion of the reaction, the reaction mixture was discarded, and after washing each well with 300 μL of the Reaction/Washing Buffer (1×) three times, 100 μL of Secondary Antibody HRP-conjugated Anti-mouse IgG (100×) diluted to 1,000-fold with the Reaction/Washing Buffer (1×) was added thereto, and the mixture were reacted at room temperature for 1 hour while shaking with a microplate shaker. After completion of the reaction, the reaction mixture was discarded, and after washing each well with 300 μL of the Reaction/Washing Buffer (1×) five times, 100 μL of TMB Solution was added, and after shaking with a microplate shaker for 1 minutes, the mixture was reacted at room temperature for 30 minutes. After completion of the reaction, 100 μL of Stop Solution was added thereto, and after shaking with a microplate shaker for 5 seconds, the absorbance at 450 nm and 620 nm was measured with Enspire (manufactured by PerkinElmer). Based on the obtained measured values, a value subtracting the absorbance at 620 nm from the absorbance at 450 nm was calculated and a relative value when the compound untreated group (control) was set to 1 was calculated.
A general note: An ELISA detects its analyte on a solid surface through an enzyme-linked reagent.

The test system of data set [4] is human umbilical cord matrix-derived mesenchymal stem cells. The description is as above. The settings on record: 24 hours, compound untreated group (control) set to 1. As to the method:
as §1, §2

The mark [5] stands for this setting: Table 4, 2 μM, 24 hours, LDH, absorbance at 490 nm.
Setting [6] is: Table 6, 2 μM, 24 hours, number of living cells, CellTiter-Glo.
Where [7] appears, read: Table 4, 50 nM, 24 hours, LDH, absorbance at 490 nm.
The mark [8] stands for this setting: Table 6, 50 nM, 24 hours, number of living cells, CellTiter-Glo.

Regarding `CC(=O)O.Cc1cc2c(C(C)C)c(O)c(O)c(C=O)c2c(O)c1-c1c(C)cc2c(C(C)C)c(O)c(O)c(C=O)c2c1O` [Example 2, (S)-Gossypol Acetate], in data set [1] (setting [5]), the Absorbance is reported as 1.02. The compound also gave a Luminescence in data set [2] (setting [6]) of 1.00. Moreover, the “Relative value of difference of absorbance” value in data set [3] (2 μM) came to 2.14; in data set [4] (2 μM), 1.57.

Consider `Cc1cc2c(C(=O)NC[C@H](C)c3ccccc3)c(O)c(O)cc2c(O)c1-c1c(C)cc2c(C(=O)NC[C@H](C)c3ccccc3)c(O)c(O)cc2c1O` [Example 8, Sabutoclax], for which, in data set [1] (setting [5]), the Absorbance is 1.18. For the same compound, the Luminescence in data set [2] (setting [6]) turned out to be 0.95. Besides, the figures for the “Relative value of difference of absorbance” value in data set [3] (2 μM) and in data set [4] (2 μM) were 1.39 and 1.44, respectively.

Turning to `CC(=O)O.Cc1cc2c(C(C)C)c(O)c(O)c(C=O)c2c(O)c1-c1c(C)cc2c(C(C)C)c(O)c(O)c(C=O)c2c1O` (racemic) [Example 1, (±)-Gossypol Acetate], the Absorbance in data set [1] (Table 3, 2 μM, 24 hours, LDH, absorbance at 490 nm) is 1.08; in data set [1] (setting [5]), 0.73. Also, the Luminescence is 0.87 in data set [2] (Table 5, 2 μM, 24 hours, number of living cells, CellTiter-Glo) and 0.96 in data set [2] (setting [6]). The “Relative value of difference of absorbance” value in data set [3] (2 μM) was 2.46; in data set [4] (2 μM) it was 1.97.

Consider `COC1=CC(c2cc3ccccc3[nH]2)=N/C1=C\c1[nH]c(C)cc1C.CS(=O)(=O)O` [Example 5, Obatoclax Mesylate], for which the Absorbance in data set [1] (Table 3, 50 nM, 24 hours, LDH, absorbance at 490 nm) came out at 1.14. The same compound showed a Luminescence in data set [2] (Table 5, 50 nM, 24 hours, number of living cells, CellTiter-Glo) of 0.75. Moreover, the “Relative value of difference of absorbance” value turned out to be 1.81 in data set [3] (20 nM) and 1.65 in data set [4] (20 nM).

Compound `CCCCCCCCCCCc1ccc(/C=C2\N=C(c3ccc[nH]3)C=C2OC)[nH]1.Cl` [Example 7, Undecylprodigiosin Hydrochloride] came in with an Absorbance in data set [1] (setting [7]) of 1.02. The Luminescence in data set [2] (setting [8]) is 0.74. For the same compound, the “Relative value of difference of absorbance” value is given as 2.88 in data set [3] (20 nM) and 1.74 in data set [4] (20 nM).

In data set [1] (setting [7]), `CCCCCC1=C/C(=C\c2[nH]c(-c3ccc[nH]3)cc2OC)N=C1C.Cl` [Example 6, Prodigiosin Hydrochloride] registered an Absorbance of 1.02. This compound gave a Luminescence in data set [2] (setting [8]) of 0.76. For the same compound, the “Relative value of difference of absorbance” value came to 1.31 in data set [3] (20 nM) and 1.48 in data set [4] (20 nM).

As to `Cc1cc2c(C(C)C)c(O)c(O)cc2c(O)c1-c1c(C)cc2c(C(C)C)c(O)c(O)cc2c1O` [Example 3, (+)-Apogossypol], the Absorbance in data set [1] (human, 24 h, 2 μM) was 1.02. The Luminescence in data set [2] (human, 24 h, 2 μM) amounted to 0.82. Further, the “Relative value of difference of absorbance” value in data set [3] (2 μM) was found to be 1.53; in data set [4] (2 μM), 1.31.

Compound `Cc1cc2c(C(C)C)c(O)c(O)c(C=O)c2c(O)c1-c1c(C)cc2c(C(C)C)c(O)c(O)c(C=O)c2c1O` [Example 4, (R)-(−)-Gossypol] showed an Absorbance in data set [1] (setting [5]) of 1.20. The Luminescence in data set [2] (human, 24 h, 2 μM) came out at 0.85. Moreover, the “Relative value of difference of absorbance” value in data set [3] (2 μM) came out at 2.39; in data set [4] (2 μM) it was 1.95.
